In publication PMC2248166, “Quantitative peptide binding motifs for 19 human and mouse MHC class I molecules derived using positional scanning combinatorial peptide libraries” (Immunome Research, 2008):

Legend:
HLA B*1503 = HLA B*1503 (Homo sapiens, UniProt P01889, A329T/A93T/A95T/C349S/D201E/D98Y/E187L/E204Q/K202T/N87E/Q94N/R155S/R180L/S121R/S35A/V306I/V36M/Y140S/Y91S); assay: biochemical; assay type: binding
HLA B*5301 = HLA B*5301 (Homo sapiens, UniProt P01889, A329T/A93T/A95T/C349S/D201E/D98Y/E176V/E187L/E204Q/E69T/G107R/I218V/K202T/L105A/L119I/N104I/Q94N/R106L/R155S/R180L/S101N/S121R/S35A/S48A/T118I/V127L/V306I/V36M/Y140S/Y91F); assay type: binding
HLA B*5101 = HLA B*5101 (Homo sapiens, UniProt P01889, A329T/A93T/A95T/C349S/D138N/D201E/D98Y/E187L/E204Q/E69T/G107R/I218V/K202T/L105A/L119W/N104I/Q94N/R106L/R155S/R180L/S101N/S121T/S35A/S48A/V306I/V36M/Y195H/Y91F); assay type: binding
H-2 D^d = H-2 D^d (Mus musculus, UniProt P01900); assay type: binding
H-2 D^d, sequence (P01900 whole entry, looked up): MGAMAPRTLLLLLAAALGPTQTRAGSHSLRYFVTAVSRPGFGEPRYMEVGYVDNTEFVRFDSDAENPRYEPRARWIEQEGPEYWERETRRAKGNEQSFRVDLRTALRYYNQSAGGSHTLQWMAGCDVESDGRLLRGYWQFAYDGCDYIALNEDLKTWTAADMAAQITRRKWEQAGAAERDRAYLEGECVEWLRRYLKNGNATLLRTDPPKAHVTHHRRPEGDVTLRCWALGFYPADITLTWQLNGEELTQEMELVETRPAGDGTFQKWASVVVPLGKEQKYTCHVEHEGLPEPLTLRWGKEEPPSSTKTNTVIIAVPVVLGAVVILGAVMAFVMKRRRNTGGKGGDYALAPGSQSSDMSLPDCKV

H-2 D^b = H-2 D^b (Mus musculus, UniProt P01899); assay type: binding
H-2 D^b, sequence (P01887 21-119): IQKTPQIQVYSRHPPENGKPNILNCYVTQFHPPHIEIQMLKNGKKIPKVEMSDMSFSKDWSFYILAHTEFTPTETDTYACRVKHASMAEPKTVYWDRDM
H-2 D^b, sequence (P01899 25-362): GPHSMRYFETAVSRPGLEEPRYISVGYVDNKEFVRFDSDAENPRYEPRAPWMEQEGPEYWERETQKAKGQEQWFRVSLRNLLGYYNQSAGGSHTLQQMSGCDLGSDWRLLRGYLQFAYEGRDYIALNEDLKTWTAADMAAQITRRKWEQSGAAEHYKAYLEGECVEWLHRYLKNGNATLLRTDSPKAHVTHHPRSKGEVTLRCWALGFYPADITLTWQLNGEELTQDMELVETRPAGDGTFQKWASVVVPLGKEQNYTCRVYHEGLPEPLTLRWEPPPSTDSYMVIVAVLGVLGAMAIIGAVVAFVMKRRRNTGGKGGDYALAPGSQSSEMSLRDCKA

HLA A*6802 = HLA A*6802 (Homo sapiens, UniProt P04439, A269V/D140Y/D185E/E176V/E277Q/E87N/F33Y/G231S/I121R/I166T/I218V/L180W/L300P/L318F/N151K/P208A/P217A/Q86R/R138H/R169H/S129P/T345S/V36M); assay type: binding
HLA A*0201 = HLA A*0201 (Homo sapiens, UniProt P04439, D140Y/D185E/D98H/E176V/E277Q/G131W/G231S/I119V/I121R/I166T/I218V/L300P/L318F/N151K/N90K/P208A/P217A/Q86G/Q94H/R138H/R169H/T345S); details: positional scanning combinatorial 9-mer library; normalized to 1.0 for the best residue at each position
HLA B*1501 = HLA B*1501 (Homo sapiens, UniProt P01889, A329T/A93T/A95T/C349S/D201E/D98Y/E187L/E204Q/E69M/E70A/K202T/N87E/Q94N/R155S/R180W/S121R/S35A/S48A/V306I/V36M/Y140S/Y91S); assay: biochemical; assay type: binding
HLA B*0702 = HLA B*0702 (Homo sapiens, UniProt P01889); assay type: binding; details: positional scanning combinatorial 9-mer library; normalized to 1.0 for the best residue at each position
H-2 K^k = H-2 K^k (Mus musculus, UniProt P04223); assay type: binding
H-2 K^k, sequence (P01887 21-119): as the sequence (P01887 21-119) above
H-2 K^k, sequence (P04223 22-369): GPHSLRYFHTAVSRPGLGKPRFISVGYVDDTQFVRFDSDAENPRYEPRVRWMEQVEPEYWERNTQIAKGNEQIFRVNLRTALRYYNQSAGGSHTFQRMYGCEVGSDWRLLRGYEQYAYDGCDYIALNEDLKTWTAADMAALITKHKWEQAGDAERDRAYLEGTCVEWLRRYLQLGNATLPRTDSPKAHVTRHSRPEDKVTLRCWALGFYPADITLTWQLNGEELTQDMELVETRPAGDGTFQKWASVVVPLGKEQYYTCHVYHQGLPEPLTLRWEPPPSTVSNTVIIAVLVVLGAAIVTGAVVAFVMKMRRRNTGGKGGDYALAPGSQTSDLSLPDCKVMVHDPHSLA

HLA B*2705 = HLA B*2705 (Homo sapiens, UniProt P01889, D138H/D201E/E176V/E204Q/G107R/H137Y/K202T/N104T/N87E/Q56L/Q94K/R106L/R155S/R180L/S101D/S121N/S48T/Y140D/Y33H/Y91C); assay type: binding; details: positional scanning combinatorial 9-mer library; normalized to 1.0 for the best residue at each position
HLA B*5401 = HLA B*5401 (Homo sapiens, UniProt P01889, A329T/C349S/D138N/D201E/E176V/E187T/E204Q/E69G/I76V/K202T/L119W/R155S/R180L/S121T/S35A/S48A/V127L/V306I/V36M/Y140L); assay type: binding
HLA B*3501 = HLA B*3501 (Homo sapiens, UniProt P01889, A329T/A93T/A95T/C349S/D201E/D98Y/E176V/E187L/E204Q/E69T/I218V/K202T/L119I/Q94N/R155S/R180L/S121R/S35A/S48A/T118I/V127L/V306I/V36M/Y140S/Y91F); assay type: binding
HLA B*5802 = HLA B*5802 (Homo sapiens, UniProt P01889, A329T/C349S/D201E/D98Y/E176V/E187L/E204Q/E69T/G107R/I218V/I90N/K202T/L105A/N104I/N87E/Q89R/Q94S/R106L/R155S/R180L/R86G/S101N/S121W/S35A/S48A/V127L/V306I/V36M/Y140S/Y91M); assay type: binding
HLA A*3001 = HLA A*3001 (Homo sapiens, UniProt P04439, D140H/D185E/E176W/F33S/G80R/H175R/K168Q/R138E/R41S); assay: biochemical; assay type: binding
HLA B*0801 = HLA B*0801 (Homo sapiens, UniProt P01889, A93T/A95T/D138N/E176V/E187T/K202T/Q94N/R180D/S35A/V36M/Y33D/Y91F); assay: biochemical; assay type: binding
HLA A*3201 = HLA A*3201 (Homo sapiens, UniProt P04439, A270S/D101S/D185E/E176V/E277Q/F133L/G103R/G107R/G231S/H175R/I121M/I218V/I322F/K168Q/L105A/L300P/L318F/M331R/P208A/P217A/Q94H/R106L/R138Q/S129P/T104I/T323A/T345S/V100E/V321M/V358M); assay: biochemical; assay type: binding
HLA B*5801 = HLA B*5801 (Homo sapiens, UniProt P01889, A329T/C349S/D201E/D98Y/E176V/E187L/E204Q/E69T/G107R/I218V/I90N/K202T/L105A/L119I/N104I/N87E/Q89R/Q94S/R106L/R155S/R180L/R86G/S101N/S121R/S35A/S48A/T118I/V127L/V306I/V36M/Y140S/Y91M); assay type: binding

| Sequence | Normalized average relative binding affinity (ARB), HLA B*1503 (HLA B*1503) | Normalized average relative binding affinity (ARB), HLA B*5301 (HLA B*5301) | Normalized average relative binding affinity (ARB), HLA B*5101 (HLA B*5101) | Normalized average relative binding affinity (ARB), H-2 Dd (H-2 D^d) | Normalized average relative binding affinity (ARB), H-2 Db (H-2 D^b) | Normalized average relative binding affinity (ARB), HLA A*6802 (HLA A*6802) | Normalized average relative binding affinity (ARB), HLA A*0201 (HLA A*0201) | Normalized average relative binding affinity (ARB), HLA B*1501 (HLA B*1501) | Normalized average relative binding affinity (ARB), HLA B*0702 (HLA B*0702) | Normalized average relative binding affinity (ARB), H-2 Kk (H-2 K^k) | Normalized average relative binding affinity (ARB), HLA B*2705 (HLA B*2705) | Normalized average relative binding affinity (ARB), HLA B*5401 (HLA B*5401) | Normalized average relative binding affinity (ARB), HLA B*3501 (HLA B*3501) | Normalized average relative binding affinity (ARB), HLA B*5802 (HLA B*5802) | Normalized average relative binding affinity (ARB), HLA A*3001 (HLA A*3001) | Normalized average relative binding affinity (ARB), HLA B*0801 (HLA B*0801) | Normalized average relative binding affinity (ARB), HLA A*3201 (HLA A*3201) | Normalized average relative binding affinity (ARB), HLA B*5801 (HLA B*5801) |
| --- | --- | --- | --- | --- | --- | --- | --- | --- | --- | --- | --- | --- | --- | --- | --- | --- | --- | --- |
| XXHXXXXXX [3064.0047] | 0.19 | 0.059 | 0.60 | 0.0028 | 0.20 | 0.14 | 0.27 | 0.68 | 0.39 | 0.72 | 0.26 | 0.013 | 0.094 | 0.42 | 0.089 | 0.35 | 0.24 | 0.19 |
| XXIXXXXXX [3064.0048] | 0.17 | 0.26 | 0.39 | 0.0041 | 0.24 | 0.38 | 0.54 | 1.0 | 0.12 | 0.26 | 0.22 | 0.083 | 0.16 | 1.0 | 0.020 | 0.15 | 0.60 | 0.77 |
| XXKXXXXXX [3064.0049] | 0.095 | 0.019 | 0.20 | 0.0033 | 0.028 | 0.11 | 0.016 | 0.53 | 0.20 | 0.39 | 0.21 | 0.015 | 0.096 | 0.081 | 0.20 | 0.96 | 0.092 | 0.020 |
| XXLXXXXXX [3064.0050] | 0.043 | 0.59 | 0.54 | 0.0040 | 1.0 | 0.10 | 0.57 | 0.18 | 0.071 | 0.70 | 0.55 | 0.040 | 0.43 | 0.59 | 0.033 | 0.21 | 0.58 | 0.61 |
| XXMXXXXXX [3064.0051] | 0.33 | 1.0 | 1.0 | 0.0095 | 0.31 | 1.0 | 1.0 | 0.77 | 1.0 | 1.0 | 0.87 | 0.24 | 1.0 | 0.57 | 0.028 | 0.90 | 0.94 | 0.48 |
| XXNXXXXXX [3064.0052] | 0.24 | 0.22 | 0.27 | 0.0028 | 0.25 | 0.27 | 0.16 | 0.46 | 0.077 | 0.40 | 0.23 | 0.14 | 0.32 | 0.098 | 0.017 | 0.11 | 0.76 | 0.88 |
